We go through 3 compounds from PMC6430017, “Structural and chemical insights into the covalent-allosteric inhibition of the protein kinase Akt” (Chemical Science, 2019).

Targets include RPS6KA2 (RSK3) (Homo sapiens, UniProt Q15349); AURKB (Aurora B) (Homo sapiens, UniProt Q96GD4); CHEK2 (CHK2) (Homo sapiens, UniProt O96017); EPHA2 (Homo sapiens, UniProt P29317); MARK2 (Homo sapiens, UniProt Q7KZI7); MAPKAPK2 (Homo sapiens, UniProt P49137); MARK1 (MARK) (Homo sapiens, UniProt Q9P0L2).
Assay in all cases: SelectScreen Z'LYTE kinase profiling
Holding throughout (type): biochemical
Holding throughout (details): ATP at apparent KM

Another experiment addresses T1, NEK1 (Homo sapiens, UniProt Q96PY6).
T1 sequence (Q96PY6 1-1258): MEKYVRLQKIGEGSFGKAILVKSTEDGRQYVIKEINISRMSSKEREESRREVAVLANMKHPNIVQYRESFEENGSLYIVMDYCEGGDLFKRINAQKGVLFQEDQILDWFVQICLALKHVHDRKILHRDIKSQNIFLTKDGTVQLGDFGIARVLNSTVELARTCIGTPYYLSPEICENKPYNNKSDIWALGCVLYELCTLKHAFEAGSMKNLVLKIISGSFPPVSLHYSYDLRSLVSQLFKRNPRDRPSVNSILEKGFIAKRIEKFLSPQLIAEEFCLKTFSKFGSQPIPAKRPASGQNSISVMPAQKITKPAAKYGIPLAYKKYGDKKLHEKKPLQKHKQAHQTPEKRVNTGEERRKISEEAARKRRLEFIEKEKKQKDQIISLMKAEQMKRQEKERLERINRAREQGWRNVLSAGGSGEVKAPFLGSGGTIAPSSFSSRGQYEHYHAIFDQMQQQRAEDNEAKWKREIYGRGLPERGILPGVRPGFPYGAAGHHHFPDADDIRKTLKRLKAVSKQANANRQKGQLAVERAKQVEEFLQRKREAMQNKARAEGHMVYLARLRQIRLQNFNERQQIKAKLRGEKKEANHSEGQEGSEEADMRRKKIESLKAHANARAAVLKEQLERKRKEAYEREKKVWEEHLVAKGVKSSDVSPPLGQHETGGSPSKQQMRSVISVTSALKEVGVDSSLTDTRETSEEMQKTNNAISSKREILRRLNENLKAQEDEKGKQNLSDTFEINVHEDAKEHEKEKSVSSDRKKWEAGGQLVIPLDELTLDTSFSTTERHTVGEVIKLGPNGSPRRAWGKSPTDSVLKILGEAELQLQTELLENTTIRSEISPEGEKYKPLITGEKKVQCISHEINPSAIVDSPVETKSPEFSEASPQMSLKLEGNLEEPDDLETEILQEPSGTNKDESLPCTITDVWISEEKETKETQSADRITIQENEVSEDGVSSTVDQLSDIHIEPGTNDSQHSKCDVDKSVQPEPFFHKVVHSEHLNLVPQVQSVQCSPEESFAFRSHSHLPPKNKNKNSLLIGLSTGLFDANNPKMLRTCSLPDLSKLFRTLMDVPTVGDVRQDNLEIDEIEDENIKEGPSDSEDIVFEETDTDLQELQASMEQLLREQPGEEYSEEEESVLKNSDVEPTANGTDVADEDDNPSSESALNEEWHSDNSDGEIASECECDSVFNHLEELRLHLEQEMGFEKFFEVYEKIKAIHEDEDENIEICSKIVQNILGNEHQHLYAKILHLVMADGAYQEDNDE

The target of a further experiment is T2, PRKCZ (PKC zeta) (Homo sapiens, UniProt Q05513).
T2 sequence (Q05513 1-592): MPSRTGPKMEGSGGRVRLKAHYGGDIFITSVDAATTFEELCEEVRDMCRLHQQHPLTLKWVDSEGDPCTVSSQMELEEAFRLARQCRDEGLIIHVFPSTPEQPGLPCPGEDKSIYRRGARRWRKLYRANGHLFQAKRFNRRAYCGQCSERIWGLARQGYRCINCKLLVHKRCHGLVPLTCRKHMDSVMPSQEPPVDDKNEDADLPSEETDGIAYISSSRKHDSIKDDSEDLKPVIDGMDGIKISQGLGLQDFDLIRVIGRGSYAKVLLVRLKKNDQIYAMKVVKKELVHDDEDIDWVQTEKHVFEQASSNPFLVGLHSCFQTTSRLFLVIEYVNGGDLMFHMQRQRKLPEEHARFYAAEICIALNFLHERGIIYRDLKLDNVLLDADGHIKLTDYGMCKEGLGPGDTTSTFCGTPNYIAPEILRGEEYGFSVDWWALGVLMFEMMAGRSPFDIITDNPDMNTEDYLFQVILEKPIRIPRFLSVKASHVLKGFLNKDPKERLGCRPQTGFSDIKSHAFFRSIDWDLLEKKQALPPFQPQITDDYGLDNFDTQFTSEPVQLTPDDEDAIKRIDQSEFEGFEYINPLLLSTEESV

The next experiment has as its target T3, AURKA (Aurora A) (Homo sapiens, UniProt O14965).
T3 sequence (O14965 1-403): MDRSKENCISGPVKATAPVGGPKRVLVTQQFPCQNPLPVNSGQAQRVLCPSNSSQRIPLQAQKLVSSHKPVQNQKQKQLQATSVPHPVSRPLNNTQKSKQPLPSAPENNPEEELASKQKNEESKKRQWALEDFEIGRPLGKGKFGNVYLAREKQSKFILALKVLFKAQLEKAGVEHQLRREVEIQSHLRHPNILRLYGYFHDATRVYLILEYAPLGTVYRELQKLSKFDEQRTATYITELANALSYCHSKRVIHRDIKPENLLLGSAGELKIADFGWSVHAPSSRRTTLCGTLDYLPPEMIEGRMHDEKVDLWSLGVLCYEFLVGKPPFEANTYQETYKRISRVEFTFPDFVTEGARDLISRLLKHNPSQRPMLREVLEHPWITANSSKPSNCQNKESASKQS

MARK2, sequence (Q7KZI7 whole entry): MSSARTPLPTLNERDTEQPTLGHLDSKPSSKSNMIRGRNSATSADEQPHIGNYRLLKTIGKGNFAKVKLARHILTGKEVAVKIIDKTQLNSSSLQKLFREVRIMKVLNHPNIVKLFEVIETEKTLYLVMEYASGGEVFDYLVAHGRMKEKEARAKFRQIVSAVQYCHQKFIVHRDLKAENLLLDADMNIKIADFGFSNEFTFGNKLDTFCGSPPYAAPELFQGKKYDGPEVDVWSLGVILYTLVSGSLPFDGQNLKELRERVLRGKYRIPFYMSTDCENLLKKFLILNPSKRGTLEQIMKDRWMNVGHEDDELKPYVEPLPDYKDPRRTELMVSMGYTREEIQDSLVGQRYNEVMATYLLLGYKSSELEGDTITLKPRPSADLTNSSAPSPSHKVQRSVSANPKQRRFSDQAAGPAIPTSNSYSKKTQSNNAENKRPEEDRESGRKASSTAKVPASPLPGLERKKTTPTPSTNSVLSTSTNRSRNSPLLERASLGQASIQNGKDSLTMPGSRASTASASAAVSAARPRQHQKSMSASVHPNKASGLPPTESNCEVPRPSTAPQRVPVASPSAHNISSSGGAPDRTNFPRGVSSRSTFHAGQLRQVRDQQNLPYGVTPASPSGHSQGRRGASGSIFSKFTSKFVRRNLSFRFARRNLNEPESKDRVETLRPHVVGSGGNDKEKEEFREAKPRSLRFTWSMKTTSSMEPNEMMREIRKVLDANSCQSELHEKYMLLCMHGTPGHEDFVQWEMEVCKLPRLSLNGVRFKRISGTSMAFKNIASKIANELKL
MARK1 (MARK), sequence (Q9P0L2 whole entry): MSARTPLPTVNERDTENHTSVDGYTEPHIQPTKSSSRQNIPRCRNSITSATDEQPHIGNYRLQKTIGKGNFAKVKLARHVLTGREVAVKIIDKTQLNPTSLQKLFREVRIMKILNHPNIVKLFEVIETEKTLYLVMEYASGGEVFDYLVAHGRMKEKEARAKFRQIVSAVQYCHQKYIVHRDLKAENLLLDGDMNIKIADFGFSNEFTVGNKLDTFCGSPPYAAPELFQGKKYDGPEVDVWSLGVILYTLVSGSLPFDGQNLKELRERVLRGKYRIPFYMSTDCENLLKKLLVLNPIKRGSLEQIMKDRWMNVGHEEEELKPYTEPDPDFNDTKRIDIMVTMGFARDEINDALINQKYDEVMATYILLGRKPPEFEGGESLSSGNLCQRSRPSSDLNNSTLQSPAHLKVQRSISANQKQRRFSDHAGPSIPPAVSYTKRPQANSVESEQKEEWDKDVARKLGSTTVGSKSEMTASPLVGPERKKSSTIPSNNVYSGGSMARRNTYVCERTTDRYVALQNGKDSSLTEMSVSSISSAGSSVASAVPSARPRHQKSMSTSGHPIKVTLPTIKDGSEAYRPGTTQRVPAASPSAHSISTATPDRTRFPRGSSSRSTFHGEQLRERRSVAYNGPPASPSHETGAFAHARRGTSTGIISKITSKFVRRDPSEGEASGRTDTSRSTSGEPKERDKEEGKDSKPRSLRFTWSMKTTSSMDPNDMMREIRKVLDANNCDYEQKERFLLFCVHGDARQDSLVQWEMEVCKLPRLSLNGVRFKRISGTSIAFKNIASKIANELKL
MAPKAPK2, sequence (P49137 whole entry): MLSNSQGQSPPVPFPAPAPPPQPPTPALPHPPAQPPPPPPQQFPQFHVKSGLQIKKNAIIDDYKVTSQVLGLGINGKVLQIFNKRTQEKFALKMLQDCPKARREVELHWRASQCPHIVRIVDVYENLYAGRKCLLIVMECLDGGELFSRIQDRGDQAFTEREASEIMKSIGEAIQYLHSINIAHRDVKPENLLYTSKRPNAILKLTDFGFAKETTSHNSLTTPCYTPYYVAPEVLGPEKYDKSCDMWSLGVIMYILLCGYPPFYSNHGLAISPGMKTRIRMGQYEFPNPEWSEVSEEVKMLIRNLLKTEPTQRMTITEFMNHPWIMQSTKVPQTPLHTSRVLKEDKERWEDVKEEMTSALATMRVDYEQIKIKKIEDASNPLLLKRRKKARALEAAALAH
AURKB (Aurora B), sequence (Q96GD4 whole entry): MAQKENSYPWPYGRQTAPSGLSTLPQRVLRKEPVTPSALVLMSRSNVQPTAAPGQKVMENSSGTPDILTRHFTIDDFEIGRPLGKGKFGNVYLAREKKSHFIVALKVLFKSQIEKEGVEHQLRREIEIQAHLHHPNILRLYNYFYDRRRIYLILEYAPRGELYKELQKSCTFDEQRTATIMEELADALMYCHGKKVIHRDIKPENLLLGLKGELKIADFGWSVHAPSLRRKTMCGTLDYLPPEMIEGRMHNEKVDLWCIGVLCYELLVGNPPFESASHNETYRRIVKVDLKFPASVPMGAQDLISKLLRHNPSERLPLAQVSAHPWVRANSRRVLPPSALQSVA
EPHA2, sequence (P29317 24-976): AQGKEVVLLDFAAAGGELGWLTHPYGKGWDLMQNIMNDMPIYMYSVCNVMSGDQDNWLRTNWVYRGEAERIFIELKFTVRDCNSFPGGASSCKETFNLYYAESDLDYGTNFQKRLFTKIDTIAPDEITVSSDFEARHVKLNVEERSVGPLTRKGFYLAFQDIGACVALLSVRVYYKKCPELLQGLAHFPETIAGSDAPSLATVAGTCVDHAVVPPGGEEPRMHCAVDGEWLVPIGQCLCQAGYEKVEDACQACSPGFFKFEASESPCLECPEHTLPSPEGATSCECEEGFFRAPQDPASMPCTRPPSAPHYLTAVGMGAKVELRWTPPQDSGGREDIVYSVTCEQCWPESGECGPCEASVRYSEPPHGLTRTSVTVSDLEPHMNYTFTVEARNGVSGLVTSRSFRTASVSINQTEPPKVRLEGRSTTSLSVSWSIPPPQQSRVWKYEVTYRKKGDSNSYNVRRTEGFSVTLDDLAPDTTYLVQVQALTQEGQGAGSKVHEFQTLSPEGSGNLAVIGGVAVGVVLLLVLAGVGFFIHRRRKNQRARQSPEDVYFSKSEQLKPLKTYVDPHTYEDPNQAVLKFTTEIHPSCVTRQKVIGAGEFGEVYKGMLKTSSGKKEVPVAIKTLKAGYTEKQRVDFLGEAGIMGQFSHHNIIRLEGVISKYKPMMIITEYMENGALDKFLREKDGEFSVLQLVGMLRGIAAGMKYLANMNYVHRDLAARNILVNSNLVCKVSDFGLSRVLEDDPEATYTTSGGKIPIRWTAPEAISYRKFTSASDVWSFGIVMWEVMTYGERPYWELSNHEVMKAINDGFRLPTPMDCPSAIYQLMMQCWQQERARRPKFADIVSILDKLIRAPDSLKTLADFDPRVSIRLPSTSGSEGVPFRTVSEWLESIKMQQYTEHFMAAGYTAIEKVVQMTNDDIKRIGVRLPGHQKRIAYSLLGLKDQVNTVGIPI
CHEK2 (CHK2), sequence (O96017 whole entry): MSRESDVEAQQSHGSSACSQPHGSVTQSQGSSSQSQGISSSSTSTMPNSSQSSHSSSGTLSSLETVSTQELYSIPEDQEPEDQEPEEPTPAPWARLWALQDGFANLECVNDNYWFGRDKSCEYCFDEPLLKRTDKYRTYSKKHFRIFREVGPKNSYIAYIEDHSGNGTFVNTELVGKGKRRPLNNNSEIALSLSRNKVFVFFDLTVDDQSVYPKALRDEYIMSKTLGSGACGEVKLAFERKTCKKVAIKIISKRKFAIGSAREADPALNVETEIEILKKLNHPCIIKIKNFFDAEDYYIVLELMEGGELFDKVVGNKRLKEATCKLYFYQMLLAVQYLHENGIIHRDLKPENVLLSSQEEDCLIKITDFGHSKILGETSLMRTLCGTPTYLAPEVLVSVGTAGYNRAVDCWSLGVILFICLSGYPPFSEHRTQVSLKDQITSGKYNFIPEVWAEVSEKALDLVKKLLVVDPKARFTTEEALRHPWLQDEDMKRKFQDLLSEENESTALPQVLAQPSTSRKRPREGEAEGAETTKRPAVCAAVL
RPS6KA2 (RSK3), sequence (Q15349 whole entry): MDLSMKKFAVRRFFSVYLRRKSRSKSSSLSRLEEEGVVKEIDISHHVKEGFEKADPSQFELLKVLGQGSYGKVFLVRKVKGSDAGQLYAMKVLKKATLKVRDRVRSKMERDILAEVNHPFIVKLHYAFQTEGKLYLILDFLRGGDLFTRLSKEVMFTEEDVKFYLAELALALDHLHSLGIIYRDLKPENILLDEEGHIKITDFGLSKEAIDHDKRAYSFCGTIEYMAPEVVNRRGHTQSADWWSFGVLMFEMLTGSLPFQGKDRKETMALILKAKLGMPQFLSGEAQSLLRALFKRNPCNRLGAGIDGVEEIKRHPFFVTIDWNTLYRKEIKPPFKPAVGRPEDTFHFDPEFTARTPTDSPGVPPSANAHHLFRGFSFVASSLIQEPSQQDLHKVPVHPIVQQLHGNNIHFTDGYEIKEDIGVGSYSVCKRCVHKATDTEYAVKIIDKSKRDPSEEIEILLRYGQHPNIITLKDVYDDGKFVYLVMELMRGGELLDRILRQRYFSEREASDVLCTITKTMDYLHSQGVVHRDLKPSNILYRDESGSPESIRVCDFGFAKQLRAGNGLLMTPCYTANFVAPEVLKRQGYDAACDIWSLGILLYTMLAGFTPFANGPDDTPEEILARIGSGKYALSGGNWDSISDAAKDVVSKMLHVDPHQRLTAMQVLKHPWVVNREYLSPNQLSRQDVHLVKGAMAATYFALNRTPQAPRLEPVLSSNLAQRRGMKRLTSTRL
Method for AURKA (Aurora A): (§1) protein kinases at a compound concentration of 1 µM. Measurements were performed in duplicates
(§2) and at the particular apparent ATP KM of each individual kinase employing the activity based Z’LYTE®
(§3) kinase assay of the SelectScreen® Kinase Profiling Services (ThermoFisher Scientific).
(§4) kinases at a compound concentration of 1 µM. Measurements were performed in duplicates and at
(§5) the particular apparent ATP KM of each individual kinase employing the activity based Z’LYTE® kinase
(§6) assay of the SelectScreen® Kinase Profiling Services (ThermoFisher Scientific).
Method for AURKB (Aurora B): as §1, §2, §3, §4, §5, §6
Method for CHEK2 (CHK2): as §1, §2, §3, §4, §5, §6
Method for EPHA2: as §1, §2, §3, §4, §5, §6
Method for MAPKAPK2: as §1, §2, §3, §4, §5, §6
Method for MARK1 (MARK): as §1, §2, §3, §4, §5, §6
Method for MARK2: as §1, §2, §3, §4, §5, §6
Method for NEK1: as §1, §2, §3, §4, §5, §6
Method for PRKCZ (PKC zeta): as §1, §2, §3, §4, §5, §6
Method for RPS6KA2 (RSK3): as §1, §2, §3, §4, §5, §6

Regarding `C=CC(=O)Nc1ccc2c(c1)n(C1CCN(Cc3ccc(-c4nc5cc[nH]c(=O)c5cc4-c4ccccc4)cc3)CC1)c(=O)n2C` [24b], the inhibition at 1 µM is 25% at RPS6KA2 (RSK3); -7% at NEK1; 0% at AURKB (Aurora B); -13% at CHEK2 (CHK2); -3% on PRKCZ (PKC zeta); -6% at EPHA2. Also, the inhibition at 1 µM at MARK2 is 4%; at MAPKAPK2, 29%; at AURKA (Aurora A), 7%; at MARK1 (MARK), 2%.

Regarding `C=CC(=O)Nc1cccc(C(=O)NC2CCN(Cc3ccc(-c4nc5cc[nH]c(=O)c5cc4-c4ccccc4)cc3)CC2)c1` [30b], the inhibition at 1 µM on RPS6KA2 (RSK3) is 33%; on NEK1 it was -2%; on AURKB (Aurora B), 2%; on CHEK2 (CHK2), -12%; at PRKCZ (PKC zeta), -4%; on EPHA2, 4%. Besides, the inhibition at 1 µM at MARK2 came to 4%; at MAPKAPK2, 31%; on AURKA (Aurora A), 22%; on MARK1 (MARK) it was 5%.

Take `C=CC(=O)Nc1cc(NC(=O)NC2CCN(Cc3ccc(-c4nc5cc[nH]c(=O)c5cc4-c4ccccc4)cc3)CC2)ccc1Cl` [compound 27]: the inhibition at 1 µM is 31% at RPS6KA2 (RSK3); -1% at NEK1; 2% on AURKB (Aurora B); 1% on CHEK2 (CHK2); -14% at PRKCZ (PKC zeta); -3% on EPHA2. In addition, the inhibition at 1 µM at MARK2 came to 6%; at MAPKAPK2 it was 33%; at AURKA (Aurora A), 10%; at MARK1 (MARK), 7%.

The inhibition is the change of the read-out against control, counted positive when it falls.
